Assays:
[1] = target: T1, human-derived recombinant BTK protein (Homo sapiens, UniProt Q06187); experiment: BTK activity inhibition assay (HTRF in vitro kinase assay); format: biochemical; conditions: 40 μM ATP, 0.2 ng/μL BTK
T1 construct: purchased Carna Biosciences 08-180
Experimental: In vitro kinase assay was used to evaluate the effects of compounds of the present invention on BTK activity (Table 1).
(§1) By using the homogeneous time-resolved fluorescence (HTRF) kinase detection kit (Cisbio, catalog number 62TK0PEC), the enzymatic activity of BTK is determined by detecting the phosphorylation level of the substrate in the kinase reaction. The reaction buffer contains the enzyme reaction buffer (1×) from the kit, 5 mM MgCl2, 1 mM DTT, 10 nM SEB and 0.01% Tween-20; the kinase reaction solution contains human-derived recombinant BTK protein (Carna Biosciences, Catalog No. 08-180) diluted to 0.2 ng/μL with the reaction buffer; the substrate reaction solution contains biotin-labeled tyrosine kinase substrate diluted to 0.5 μM with the reaction buffer and 40 μM ATP; the detection buffer contains Eu^3+-labeled cage antibody diluted to 0.05 ng/μL and streptavidin-labeled XL665 antibody diluted to 31.25 nM with the reaction buffer; the test compound is dissolved and diluted to 100 μM with DMSO, followed by a 4-fold serial dilution with DMSO to the lowest concentration of 6.1 nM and finally 40-time dilution with the reaction buffer for each concentration point. If the IC50 value of the compound is very low, the initial concentration of the compound is reduced.
(§2) Add 4 μL test compound solution and 2 μL kinase reaction solution to a 384-well detection plate (Corning, catalog number 3674), mix well and incubate at room temperature for 15 minutes; add 4 μL substrate reaction solution and incubate for 50 minutes; add 10 μL detection buffer, mix well and stand for 60 minutes; detect signal at 620 nm and 665 nm using an Envision plate reader (Perkin Elmer). The signal value (absorbance at 665 nm/absorbance at 620 nm) is positively correlated with the degree of phosphorylation of the substrate, thereby detecting the kinase activity of BTK. In this experiment, the group without BTK is the negative control (100% inhibition) and the group with BTK but no compound is the positive control (0% inhibition). The inhibition curve is plotted and the corresponding IC50 value of the test compound is calculated using XLfit software (ID Business Solutions Ltd., UK).

[2] = target: T2, human recombinant BTK C481S protein (Homo sapiens, UniProt Q06187, C481S); experiment: BTK C481S activity inhibition assay (HTRF in vitro kinase assay); format: biochemical; conditions: 35 μM ATP, 1.5 ng/μL BTK C481S
T2 construct: made in house
T2 sequence (Q06187 whole entry C481S): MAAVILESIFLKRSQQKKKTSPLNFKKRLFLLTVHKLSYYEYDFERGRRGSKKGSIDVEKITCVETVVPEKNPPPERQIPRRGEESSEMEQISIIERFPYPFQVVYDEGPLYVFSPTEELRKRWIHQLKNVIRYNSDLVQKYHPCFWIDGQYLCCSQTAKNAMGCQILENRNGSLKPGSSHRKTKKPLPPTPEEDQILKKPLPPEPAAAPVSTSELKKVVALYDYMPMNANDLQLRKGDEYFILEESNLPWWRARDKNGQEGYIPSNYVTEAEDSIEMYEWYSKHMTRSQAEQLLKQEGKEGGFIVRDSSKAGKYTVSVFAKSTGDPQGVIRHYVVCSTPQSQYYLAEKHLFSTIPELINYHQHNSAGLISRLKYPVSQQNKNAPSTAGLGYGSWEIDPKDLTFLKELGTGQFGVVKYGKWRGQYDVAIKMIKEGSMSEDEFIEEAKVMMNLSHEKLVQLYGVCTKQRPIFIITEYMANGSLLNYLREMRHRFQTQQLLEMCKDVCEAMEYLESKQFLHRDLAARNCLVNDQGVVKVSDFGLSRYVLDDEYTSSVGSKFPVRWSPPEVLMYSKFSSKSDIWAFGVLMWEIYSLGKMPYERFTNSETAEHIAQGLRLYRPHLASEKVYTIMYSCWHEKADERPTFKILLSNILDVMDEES
Experimental: In vitro kinase assay was used to evaluate the effects of compounds of the present invention on BTK C481S activity (Table 1).
as §1, with “BTK C481S” for “BTK”, “nM SEB,” for “nM SEB”, “contains human” for “contains human-derived”, “protein (purified in-house)” for “protein (Carna Biosciences, Catalog No. 08-180)”, “to 1.5” for “to 0.2”, “and 35” for “and 40”
as §2, with “activity of BTK C481S. In this” for “activity of BTK. In this”, “with BTK C481 S but no” for “with BTK but no”, “XLfit software (TD Business Solutions” for “XLfit software (ID Business Solutions”

T1 sequence (Q06187 whole entry): as the sequence (Q06187 whole entry C481S) above, with S481C counted along it

Structure (SMILES)	IC50 [1] [nM]	IC50 [2] [nM]
COc1ccc(C)nc1C(=O)NCc1ccc(-c2nc(C3CCCOC3)n3ccnc(N)c23)cc1 (stereo not shown) [Compound 19, N-(4-(8-amino-3-(tetrahydro-2H-pyran-3-yl)imidazo[1,5-a]pyrazin-1-yl)benzyl)-3-methoxy-6-methylpicolinamide]	212	201
COc1ccc(F)cc1C(=O)NCc1ccc(-c2nc(C3CCCOC3)n3ccnc(N)c23)cc1 (stereo not shown) [Compound 21, N-(4-(8-amino-3-(tetrahydro-2H-pyran-3-yl)imidazo[1,5-a]pyrazin-1-yl)benzyl)-5-fluoro-2-methoxybenzamide]	1.7	1.8
COc1ccc(F)cc1C(=O)NCc1ccc(-c2nn(C3CCOCC3)c3ccnc(N)c23)cc1 [Compound 1, N-(4-(4-amino-1-(tetrahydro-2H-pyran-4-yl)-1H-pyrazolo[4,3-c]pyridin-3-yl)benzyl)-5-fluoro-2-methoxybenzamide]	17	3.5
COC(=O)C12CC(c3nc(-c4ccc(CNC(=O)c5cc(F)ccc5OC)cc4)c4c(N)ncnn34)(C1)C2 [Compound 29, methyl 3-(4-amino-5-(4-((5-fluoro-2-methoxybenzamido)methyl)phenyl)imidazo[5,1-f][1,2,4]triazin-7-yl)bicyclo[1.1.1]pentane-1-carboxylate]	1.2	2.1
COc1ccc(F)cc1C(=O)NCc1ccc(-c2nc(C34CCC(C(=O)O)(CC3)CC4)n3ccnc(N)c23)cc1 [Compound 34, 4-(8-amino-1-(4-((5-fluoro-2-methoxybenzamido)methyl)phenyl)imidazo[1,5-a]pyrazin-3-yl)bicyclo[2.2.2]octane-1-carboxylic acid]	0.9	1.5

More lines, in order of falling IC50 [1], values ahead:

IC50 [1] [nM]	IC50 [2] [nM]	Structure (SMILES)
155	36	COc1ccc(F)cc1C(=O)NCc1ccc(-c2nc([C@@H]3CCNC3)n3ncnc(N)c23)cc1 [Compound 22, (R)-N-(4-(4-amino-7-(pyrrolidin-3-yl)imidazo[5,1-f][1,2,4]triazin-5-yl)benzyl)-5-fluoro-2-methoxybenzamide]
20	3.9	COc1ccccc1C(=O)NCc1ccc(-c2nc(C3CCC(CO)OC3)n3ccnc(N)c23)cc1F (stereo not shown) [Compound 11, N-(4-(8-amino-3-(6-(hydroxymethyl)tetrahydro-2H-pyran-3-yl)imidazo[1,5-a]pyrazin-1-yl)-2-fluorobenzyl)-2-methoxybenzamide]
10	7.1	COc1ccc(F)cc1C(=O)NCc1ccc(-c2nc(N3CCOCC3)n3ccnc(N)c23)cc1 [Compound 44, N-(4-(8-amino-3-morpholinoimidazo[1,5-a]pyrazin-1-yl)benzyl)-5-fluoro-2-methoxybenzamide]
2.7	5.4	COc1ccc(F)cc1C(=O)NCc1ccc(-c2nc(C3(C(F)(F)F)CC3)n3ncnc(N)c23)cc1 [Compound 43, N-(4-(4-amino-7-(1-(trifluoromethyl)cyclopropyl)imidazo[5,1-f][1,2,4]triazin-5-yl)benzyl)-5-fluoro-2-methoxybenzamide]
1.7	2.5	COc1ccc(F)cc1C(=O)NCc1ccc(-c2nn(C3CCC(CO)CC3)c3ccnc(N)c23)cc1 (stereo not shown) [Compound 2, N-(4-(4-amino-1-(4-(hydroxymethyl)cyclohexyl)-1H-pyrazolo[4,3-c]pyridin-3-yl)benzyl)-5-fluoro-2-methoxybenzamide]
1	3	CNC(=O)[C@H]1CC[C@H](c2nc(-c3ccc(CNC(=O)c4cc(F)ccc4OC)cc3)c3c(N)nccn32)CC1 [Compound 23, N-(4-(8-amino-3-((1r,4r)-4-(methylcarbamoyl)cyclohexyl)imidazo[1,5-a]pyrazin-1-yl)benzyl)-5-fluoro-2-methoxybenzamide]
